Laboratory results taken from patent US12084461B2, “Bicyclic heteroaryl derivatives” (Hoffmann-La Roche Inc., priority 2018, dated 2024).
pIC50: −log10 of the molar value.

tested on: γ-secretase; test: Cellular γ-secretase assay (inhibition of Aβ42 secretion, AlphaLisa); type: cell-based; conditions: human neuroglioma H4 cells overexpressing human APP695 Swedish double mutation, 24 h compound incubation
Method: Human neuroglioma H4 cells overexpressing human APP695 with the Swedish double mutation (K595N/M596L) were plated at 30,000 cells/well/100 μL in 96-well plates in IMDM containing 10% FCS, 0.2 mg/L Hygromycin B and incubated at 37° C., 5% CO2. 3-4 h post plating, compounds are a diluted in media and 50 μL is added as […] concentrate to achieve the final concentration. Compound incubation is performed for 24 h. Final doses typically range from 4 μM down to 0.0013 μM in half-log steps resulting in an eight-point dose response curve.
Appropriate controls using vehicle only and reference compound were applied to this assay. The final concentration of Me2SO was 0.4%.
After incubation at 37° C., 5% CO2, the supernatant was subjected to quantification of secreted Aβ42 by the means of an AlphaLisa assay kit (Human Amyloid beta 1-42 Kit: Cat # AL203C, Perkin Elmer). 20 μL of the cell culture supernatant was transferred to an assay plate. Then 10 μL, of a mixture of the AlphaLisa coupled capture antibody and the biotinylated detection antibody was added and incubated for 3 h at RT while softly shaking the assay plate. After a further addition of 20 μL of the Donor beads the assay plate was incubated for 30 min at RT and constant shaking without exposure to direct light. The assay plate was then read on a Paradigm AlphaLisa Reader using the build-in program with excitation at 680 nm and emission at 570 nm. The measured signals were then used to calculate IC50 values for inhibition of Aβ42 secretion by nonlinear regression fit analysis using XLfit 5.3 software (from IDBS company).

Point of comparison: `Cc1cc(N2C[C@H]3CC[C@@H](C2)[C@@H]3Nc2nc3n(n2)CCCO[C@@H]3c2ccc(F)c(F)c2F)cnn1` (single isomer, unassigned) [Example 17], pIC50 7.08. Against it:
- COc1cc(N2C[C@H]3CC[C@@H](C2)[C@@H]3Nc2nc3n(n2)CCO[C@@H]3c2ccc(F)c(F)c2F)ccn1 (single isomer, unassigned) [Example 31] — 0.20 log units higher, 7.28
- Cc1cc(N2C[C@H]3CC[C@@H](C2)[C@@H]3Nc2nc3n(n2)CCO[C@@H]3c2ccc(F)c(F)c2F)ncn1 [Example 23, (8R)—N-[(1R,5S)-3-(6-methylpyrimidin-4-yl)-3-azabicyclo[3.2.1]octan-8-yl]-8-(2,3,4-trifluorophenyl)-6,8-dihydro-5H-[1,2,4]triazolo[5,1-c][1,4]oxazin-2-amine] — within 0.2 log units, 7.22
- COc1cc(N2C[C@H]3CC[C@@H](C2)[C@@H]3Nc2nc3n(n2)CCCOC3c2cc(F)cc(Cl)c2)cnn1 (single isomer, unassigned) [Example 20] — 0.38 log units higher, 7.46
- Cc1cc(N2C[C@H]3CC[C@@H](C2)[C@@H]3Nc2nc3n(n2)CCO[C@@H]3c2cc(F)cc(Cl)c2)ncn1 [Example 25, (8R)-8-(3-chloro-5-fluoro-phenyl)-N-[(1R,5S)-3-(6-methylpyrimidin-4-yl)-3-azabicyclo[3.2.1]octan-8-yl]-6,8-dihydro-5H-[1,2,4]triazolo[5,1-c][1,4]oxazin-2-amine] — 0.60 log units higher, 7.68
- COc1cc(N2C[C@H]3CC[C@@H](C2)[C@@H]3Nc2nc3n(n2)CCO[C@@H]3c2cc(F)cc(Cl)c2)ccn1 [Example 29, (8R)-8-(3-chloro-5-fluoro-phenyl)-N-[(1R,5S)-3-(2-methoxy-4-pyridyl)-3-azabicyclo[3.2.1]octan-8-yl]-6,8-dihydro-5H-[1,2,4]triazolo[5,1-c][1,4]oxazin-2-amine] — 0.87 log units higher, 7.95
- Cc1cc(N2C[C@H]3CC[C@@H](C2)[C@@H]3Nc2nc3n(n2)CCCO[C@@H]3c2cc(F)cc(Cl)c2)ncn1 (single isomer, unassigned) [Example 33] — 0.88 log units higher, 7.96
- Cc1cc(N2C[C@H]3CC[C@@H](C2)[C@@H]3Nc2nc3n(n2)CCCOC3c2ccc(F)c(F)c2F)ncn1 (single isomer, unassigned) [Example 40] — 0.64 log units higher, 7.72
- COc1cc(N2C[C@H]3CC[C@@H](C2)[C@@H]3Nc2nc3n(n2)CCCO[C@@H]3c2cc(F)cc(Cl)c2)ccn1 (single isomer, unassigned) [Example 35] — 1.10 log units higher, 8.18
- Cc1cc(N2C[C@H]3CC[C@@H](C2)[C@@H]3Nc2nc3n(n2)CCCOC3c2cc(F)cc(Cl)c2)ncn1 (single isomer, unassigned) [Example 34] — 0.63 log units higher, 7.71
- Cc1cc(N2C[C@H]3CC[C@@H](C2)[C@@H]3Nc2nc3n(n2)CCCO[C@@H]3c2ccc(F)c(F)c2F)ncn1 (single isomer, unassigned) [Example 39] — 0.28 log units higher, 7.36
- Cc1cc(N2C[C@H]3CC[C@@H](C2)[C@@H]3Nc2nc3n(n2)CCCO[C@@H]3c2cccc(F)c2F)ncn1 (single isomer, unassigned) [Example 5] — 0.24 log units higher, 7.32
- COc1cc(N2C[C@H]3CC[C@@H](C2)[C@@H]3Nc2nc3n(n2)CCCO[C@@H]3c2cccc(F)c2F)cnn1 (single isomer, unassigned) [Example 1] — within 0.2 log units, 7.07
- COc1cc(N2C[C@H]3CC[C@@H](C2)[C@@H]3Nc2nc3n(n2)CCOC3c2cc(F)cc(Cl)c2)cnn1 (single isomer, unassigned) [Example 22] — within 0.2 log units, 7.14
- COc1cc(N2C[C@H]3CC[C@@H](C2)[C@@H]3Nc2nc3n(n2)CCCOC3c2cccc(F)c2F)cnn1 (single isomer, unassigned) [Example 2] — 0.21 log units higher, 7.29
- COc1cc(N2C[C@H]3CC[C@@H](C2)[C@@H]3Nc2nc3n(n2)CCO[C@@H]3c2cc(F)cc(Cl)c2)cnn1 [Example 21, (8R)-8-(3-chloro-5-fluoro-phenyl)-N-[(1R,5S)-3-(6-methoxypyridazin-4-yl)-3-azabicyclo[3.2.1]octan-8-yl]-6,8-dihydro-5H-[1,2,4]triazolo[5,1-c][1,4]oxazin-2-amine] — 0.70 log units higher, 7.78
- COc1cc(N2C[C@H]3CC[C@@H](C2)[C@@H]3Nc2nc3n(n2)CCCO[C@@H]3c2cc(F)cc(Cl)c2)cnn1 (single isomer, unassigned) [Example 19] — 0.80 log units higher, 7.88
- Cc1cc(N2C[C@H]3CC[C@@H](C2)[C@@H]3Nc2nc3n(n2)CCCOC3c2ccc(F)cc2F)ncn1 (single isomer, unassigned) [Example 10] — within 0.2 log units, 7.14
- Cc1cc(N2C[C@H]3CC[C@@H](C2)[C@@H]3Nc2nc3n(n2)CCCOC3c2cc(F)cc(Cl)c2)cnn1 (single isomer, unassigned) [Example 16] — within 0.2 log units, 7.20
- Cc1cc(N2C[C@H]3CC[C@@H](C2)[C@@H]3Nc2nc3n(n2)CCCO[C@@H]3c2cc(F)cc(F)c2)ncn1 (single isomer, unassigned) [Example 7] — 0.28 log units higher, 7.36
- Cc1cc(N2C[C@H]3CC[C@@H](C2)[C@@H]3Nc2nc3n(n2)CCCO[C@@H]3c2ccc(F)cc2F)ncn1 (single isomer, unassigned) [Example 8] — within 0.2 log units, 7.13
- COc1cc(N2C[C@H]3CC[C@@H](C2)[C@@H]3Nc2nc3n(n2)CCCO[C@@H]3c2cc(F)cc(F)c2)cnn1 [Example 11, (9R)-9-(3,5-difluorophenyl)-N-[(1R,5S)-3-(6-methoxypyridazin-4-yl)-3-azabicyclo[3.2.1]octan-8-yl]-5,6,7,9-tetrahydro-[1,2,4]triazolo[5,1-c][1,4]oxazepin-2-amine] — 0.58 log units higher, 7.66
- Cc1cc(N2C[C@H]3CC[C@@H](C2)[C@@H]3Nc2nc3n(n2)CCCOC3c2cccc(F)c2F)ncn1 (single isomer, unassigned) [Example 6] — within 0.2 log units, 7.21
- COc1cc(N2C[C@H]3CC[C@@H](C2)[C@@H]3Nc2nc3n(n2)CCCOC3c2ccc(F)c(F)c2F)ccn1 (single isomer, unassigned) [Example 38] — 0.82 log units higher, 7.90
- Cc1cc(N2C[C@H]3CC[C@@H](C2)[C@@H]3Nc2nc3n(n2)CCCOC3c2cc(F)cc(F)c2)ncn1 (single isomer, unassigned) [Example 9] — 0.58 log units higher, 7.66
- Cc1cc(N2C[C@H]3CC[C@@H](C2)[C@@H]3Nc2nc3n(n2)CCOC3c2ccc(F)c(F)c2F)ncn1 (single isomer, unassigned) [Example 24] — within 0.2 log units, 7.10
- COc1cc(N2C[C@H]3CC[C@@H](C2)[C@@H]3Nc2nc3n(n2)CCCO[C@@H]3c2ccc(F)cc2F)cnn1 [Example 3, (9R)-9-(2,4-difluorophenyl)-N-[(1R,5S)-3-(6-methoxypyridazin-4-yl)-3-azabicyclo[3.2.1]octan-8-yl]-5,6,7,9-tetrahydro-[1,2,4]triazolo[5,1-c][1,4]oxazepin-2-amine] — within 0.2 log units, 7.06
- COc1cc(N2C[C@H]3CC[C@@H](C2)[C@@H]3Nc2nc3n(n2)CCCO[C@@H]3c2ccc(F)c(F)c2F)cnn1 (single isomer, unassigned) [Example 13] — 0.58 log units higher, 7.66
- COc1cc(N2C[C@H]3CC[C@@H](C2)[C@@H]3Nc2nc3n(n2)CCOC3c2ccc(F)c(F)c2F)cnn1 (single isomer, unassigned) [Example 28] — within 0.2 log units, 7.02
- COc1cc(N2C[C@H]3CC[C@@H](C2)[C@@H]3Nc2nc3n(n2)CCCOC3c2ccc(F)cc2F)cnn1 (single isomer, unassigned) [Example 4] — within 0.2 log units, 7.12
- Cc1cc(N2C[C@H]3CC[C@@H](C2)[C@@H]3Nc2nc3n(n2)CCCO[C@@H]3c2cc(F)cc(Cl)c2)cnn1 [Example 15, (9R)-9-(3-chloro-5-fluoro-phenyl)-N-[(1R,5S)-3-(6-methylpyridazin-4-yl)-3-azabicyclo[3.2.1]octan-8-yl]-5,6,7,9-tetrahydro-[1,2,4]triazolo[5,1-c][1,4]oxazepin-2-amine] — 0.54 log units higher, 7.62
- COc1cc(N2C[C@H]3CC[C@@H](C2)[C@@H]3Nc2nc3n(n2)CCCOC3c2cc(F)cc(F)c2)cnn1 (single isomer, unassigned) [Example 12] — within 0.2 log units, 7.14
- COc1cc(N2C[C@H]3CC[C@@H](C2)[C@@H]3Nc2nc3n(n2)CCCOC3c2cc(F)cc(Cl)c2)ccn1 (single isomer, unassigned) [Example 36] — 0.81 log units higher, 7.89
- COc1cc(N2C[C@H]3CC[C@@H](C2)[C@@H]3Nc2nc3n(n2)CCCO[C@@H]3c2ccc(F)c(F)c2F)ccn1 [Example 37, (9R)—N-[(1R,5S)-3-(2-methoxy-4-pyridyl)-3-azabicyclo[3.2.1]octan-8-yl]-9-(2,3,4-trifluorophenyl)-5,6,7,9-tetrahydro-[1,2,4]triazolo[5,1-c][1,4]oxazepin-2-amine] — 0.72 log units higher, 7.80
- COc1cc(N2C[C@H]3CC[C@@H](C2)[C@@H]3Nc2nc3n(n2)CCCOC3c2ccc(F)c(F)c2F)cnn1 (single isomer, unassigned) [Example 14] — 0.27 log units higher, 7.35
- COc1cc(N2C[C@H]3CC[C@@H](C2)[C@@H]3Nc2nc3n(n2)CCO[C@@H]3c2ccc(F)c(F)c2F)cnn1 [Example 27, (8R)—N-[(1R,5S)-3-(6-methoxypyridazin-4-yl)-3-azabicyclo[3.2.1]octan-8-yl]-8-(2,3,4-trifluorophenyl)-6,8-dihydro-5H-[1,2,41]triazolo[5,1-c][1,4]oxazin-2-amine] — within 0.2 log units, 7.11
